Tested on: HL-60 cells
Assay: Induction of differentiation of HL-60 cells (CD11b expression, flow cytometry)
Format: cell-based, human
Design: reference not given here
Settings: 30 μg/ml; 3 days; CD11b fluorescence
Description: HL-60 cells were cultivated in RPMI-1640 medium supplemented with 10% of FCS at 37° C. under 5% CO2, and the cell concentration was adjusted to 5×10^4 cells/ml.
Then, the above-mentioned medium containing 30 μg/ml of each test compound was added to each well of 6-well microplates (Costar), followed by 3 days of incubation at 37° C. under 5% CO2. In a control group, the above medium alone was added and incubation was performed in the same manner. Thereafter, each cultured cell suspension was sampled into an Eppendorf tube and, after staining with 0.2% trypan blue-containing phosphate buffer, viable cells were counted using a hematocytometer.
The above cells were adjusted to 1×10^7 cells/ml. To 100 μl of the cell suspension was added 5 μl of a solution of fluorescein isothiocyanate (FITC)-labeled anti-human CD11b antibody (Mol; Coulter) and the reaction was allowed to proceed on ice in the dark for 30 minutes. Then, cells were washed twice with PBS (phosphate-buffered saline; Nissui Pharmaceutical) containing 0.1% of BSA (bovine serum albumin; Sigma), finally suspended in 500 μl of the BSA-containing PBS and measured for fluorescence intensity by flow cytometry using Profile II (Coulter).

SMILES: COc1ccc(C(=O)N2CCN(c3ccc4c(c3)CCC(=O)N4)CC2)cc1OC [Compound 1, 6-[4-(3,4-Dimethoxybenzoyl)-1-piperazinyl]-3,4-dihydrocarbostyril]
- Induction of differentiation promoting effect: 322

From US5672603A, “Apoptosis regulating composition” (Otsuka Pharmaceutical Co., Ltd., priority 1991, dated 1997)
